Data published in patent publication US10125183B2, “Decoy peptides inhibiting binding of AMIGO2 and 3-phosphoinositide-dependent kinase 1” (Curacle Co., Ltd., priority 2015, dated 2018).
Where no end group is shown, it is not given here.

Columns and labels:
[1] = test system: HUVECs; assay: EC adhesion assay; type: cell-based, human; settings: siRNA-transfected HUVECs
Protocol: (§1) HUVECs were transfected with scrambled (control) and human AMIGO2 siRNAs using Lipofectamine® (Invitrogen) for 3 h, and cells were assayed 48 h after transfection. Human AMIGO2 siRNA was designed by Invitrogen using the following sequences: 5′-[…]-3′ (SEQ ID NO: 8) and 5′-[…]-3′ (SEQ ID NO: 9). HUVECs were transfected with EGFP-tagged plasmids using Lipofectamine® LTX and PLUS™ (Invitrogen) for 2 h, and cells were assayed 24 h after transfection.
HUVECs transfected with siRNA were trypsinized and washed twice in phenol-free M199. Prior to seeding, a 96-well plate was coated with 2% gelatin, fibronectin (3 μg/ml in PBS), and collagen type I (10 μg/ml in PBS), and incubated at 37° C. for 1 h in a humidified incubator. Prior to the initiation of the experiments, the wells were rinsed twice with PBS. HUVECs were labeled with calcein AM, and 1.5×10^4 cells were seeded into each well of the 96-well plates. Cells were incubated for 1 h at 37° C., and non-adherent, calcein-labeled cells were removed by four washes. M199 containing 20% FBS was added to the cells in each well, and the fluorescence was measured (maximum absorbance at 494 nm and maximum emission at 517 nm) using a fluorescein filter set by FLUOstar Omega (BGM LABTECH).

[2] = test system: HUVECs; assay: HUVEC cell viability with or without VEGF; type: cell-based, human; settings: in the presence or absence of VEGF
Protocol: Endothelial progenitor cells (EPC) were isolated from human umbilical cord blood as previously described (Maeng et al., 2009). Briefly, human umbilical cord blood samples (approximately 50 mL each) were collected from fresh placentas with attached umbilical cords by gravity flow. Human umbilical vein endothelial cells (HUVECs) were isolated from human umbilical cord veins using collagenase as described previously (Marin et al., 2001), and cells from passages three to six were used. HUVECs were cultured on 2% gelatin-coated dishes at 37° C. in a 5% CO2-humidified atmosphere using M199 medium (HyClone) containing 20% fetal bovine serum (FBS), 100 U/mL penicillin, 100 μg/mL streptomycin, 3 ng/mL bFGF (Upstate Biotechnology), and 5 U/mL heparin.
The PTD-A2 of FITC-linker-YGRKKRRQRRR-GKRVVFLEPLKDTA (SEQ ID NO: 37) (decoy peptide) and the control peptide (FITC-linker-YGRKKRRQRRR-GRVKTDFLAVPEKL (SEQ ID NO: 38)) (Con-pep) were obtained from Peptron. The experiment was performed using 5 μM concentration in vitro, 4 mg/kg was used for an animal experiment. Peptide treated HUVECs were incubated with serum-free M199 medium at 37° C.

[3] = test system: Akt; assay: Endogenous Akt signaling in AMIGO2 siRNA-transfected HUVECs; type: cell-based, human
Protocol: as §1

[4] = test system: HUVECs; assay: FAK immunostaining, F-actin staining and apoptosis markers in siRNA-transfected HUVECs; type: cell-based, human
Protocol: as §1
HUVECs were fixed in 3.7% formaldehyde for 10 min and permeabilized with 0.1% Triton X-100 on the ice. Cells were labeled with anti-FAK antibody (Santa Cruz Biotechnology), anti-PDK1 antibody (Cell Signaling Technology), anti-Akt antibody (Cell Signaling Technology), and anti-AMIGO2 antibody (Abcam) for 2 h at room temperature or overnight at 4° C. Afterwards, the cells were incubated with Alexa 488 and Alexa 546 secondary antibodies (Invitrogen) for 60 min at room temperature, and were then examined under a confocal microscope (LSM 700 META; Carl Zeiss).

[5] = test system: AMIGO2; assay: In vivo siRNA injection and analysis of hyaloid vessels and retinas; design: species or system mouse
Protocol: The sequence 5′-[…]-3′ (SEQ ID NO: 28) (mouse AMIGO2 siRNA, Dharmacon) was mixed with the TransIT®-QR Starter Kit (Mirus), and subcutaneously injected to each mouse (5 μg/P3.5 mouse) (Behlke, 2006; Bonifazi et al., 2010; Inaba et al., 2012; Mammoto et al., 2009). Hyaloid vessels and retinas were prepared as previously described (Lobov et al., 2005). After 2 days, the differences of protein change, retina, and hyaloid vessels were analyzed.

[6] = target: T1, PH domain of PDK1 (Homo sapiens, UniProt O15530); assay: Pull-down assay and Far-western analysis of truncated AMIGO2 CD mutants; type: binding; settings: purified GST-tagged proteins
T1 construct: the purified His-tagged PH domain proteins were incubated with Ni^2+-NTA resins; made in house; host or cells: Escherichia coli BL21
T1 sequence (O15530 409-556): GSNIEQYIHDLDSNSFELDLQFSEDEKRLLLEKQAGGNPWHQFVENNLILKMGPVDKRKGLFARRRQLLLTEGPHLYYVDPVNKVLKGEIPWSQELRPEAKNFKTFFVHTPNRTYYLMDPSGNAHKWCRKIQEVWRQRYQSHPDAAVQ
Protocol: GST-CD, 420-484, 420-474, 420-464 and 420-454 were prepared with vector plasmids of pGEX 4T1 and pET32a followed by the preparation of His-PH.BamH1 (5′-[…]-3′) (SEQ ID NO: 29) and Xho1 (5′-[…]-3′ (SEQ ID NO: 30), CD; 5′-[…]-3′ (SEQ ID NO: 31), 420-484; 5′-[…]-3′ (SEQ ID NO: 32), 420-474; 5′-[…]-3′ (SEQ ID NO: 33), 420-464; and 5′-[…]-3′ (SEQ ID NO: 34), 420-454) were used, and BamH1 (5′-[…]-3′ (SEQ ID NO: 35)) and Xho1 (5′-[…]-3′ (SEQ ID NO: 36)) were used for preparing His-PH. The proteins were expressed in Escherichia coli BL21, and purified with glutathione-Sepharose 4B resin and Ni2+-NTA-agarose.
GST and His-fused proteins (1.5 mg/ml:1.5 mg/ml) were incubated for 2 h at 4° C., immobilized on Ni^2+-NTA resin or glutathione-Sepharose 4B beads, and incubated for 30 min. Proteins were then eluted with elution buffer (25 mM NaPi, 300 mM NaCl, 5 mM β-mercaptoethanol, 500 mM imidazole, pH 7.5), western blot was performed with anti-GST and His antibodies.
Far-western analysis was performed as previously described (Wu et al., 2007). Briefly, purified GST-tagged proteins (1 μg) were loaded and separated, and then transferred to PVDF membranes. The membranes were denatured and renatured, incubated with purified His-tagged PH domain proteins (10 μg), and then detected with anti-His antibody.

[7] = subcutaneous injection, 5 μg/P3.5 mouse, after 2 days

Molecule: 5′-UUAGGAUGCCCUCAGCUAUCACUGC-3′ (SEQ ID NO: 8) and 5′-AUUGUUGUAAAGCAGAAGCACUUCC-3′ (SEQ ID NO: 9) [AMIGO2 siRNA]
- adhesion on ECM substrates (gelatin, fibronectin, collagen type I) [1]: reduced
- cell viability of siRNA-transfected HUVECs [2]: decreased
- Akt phosphorylation (Thr308 and Ser473) [3]: reduced
- active caspase-3 and FAK fragments [4]: detected
- expression of FAK (immunostaining) [4]: low
- F-actin depolymerization ([4]; rhodamine-phalloidin staining): exhibited F-actin depolymerization

Molecule: 5′-UUGUACAAAAGAUCUCGCUGA-3′ (SEQ ID NO: 28) [AMIGO2-specific siRNA]
- Akt phosphorylation in hyaloid vessels and retinas ([5]; Amigo2-depleted mice): decreased
- expression of AMIGO2 in vivo ([5]; subcutaneous injection, 5 μg/P3.5 mouse): decreased
- hyaloid vessel structure [5, 7]: significant decreases
- retinal vessel growth and vascular areas [5, 7]: reduced

Molecule: 420-474: purified GST-tagged truncated mutant of the AMIGO2 cytosolic domain, residues 420-474 (TPCPCKCKTKRQKNMLHQSNAHSSILSPGPASDASADERKAGAGKRVVFLEPLKD; cysteine pairing not given here; also: GST-tagged)
- direct interaction with purified His-PDK1 PH [6]: directly interacted

B1: GST-tagged AMIGO2^CD: purified GST-tagged cytosolic domain of AMIGO2 (420-522aa) (protein)
chain: TPCPCKCKTKRQKNMLHQSNAHSSILSPGPASDASADERKAGAGKRVVFLEPLKDTAAGQNGKVRLFPSEAVIAEGILKSTRGKSDSDSVNSVFSDTPFVAST
modifications: left off: a dimerising Fc or GST
- direct interaction with purified His-PDK1 PH [6]: directly interacted

B2: 420-484: purified GST-tagged truncated mutant of the AMIGO2 cytosolic domain, residues 420-484 (protein)
chain: TPCPCKCKTKRQKNMLHQSNAHSSILSPGPASDASADERKAGAGKRVVFLEPLKDTAAGQNGKVR
modifications: also: GST-tagged
- direct interaction with purified His-PDK1 PH [6]: directly interacted
